Assay results published in publication PMC9203742 (Nature Communications, 2022).
pEC50: −log10 of the molar value. Where “and” joins values, the source holds several entries; their conditions need not be identical. Equal entries are not always repeated.

What was measured:
Format in all cases: cell-based
WT mGlu1 = molecular target: T1, WT mGlu1 (Rattus norvegicus, UniProt P23385); conditions: single-cell values #1-#20; WT
T1 construct: expressed in transfected cells; host or cells: HEK293

mGlu1 P58H/N264H mutant = molecular target: T2, mGlu1 P58H/N264H mutant (Rattus norvegicus, UniProt P23385, N264H/P58H); assay: Fura-2 Ca2+ imaging in HEK293 cells expressing mGlu1 P58H/N264H
T2 construct: expressed in transfected cells; host or cells: HEK293
T2 sequence (P23385 19-1199 P58H/N264H): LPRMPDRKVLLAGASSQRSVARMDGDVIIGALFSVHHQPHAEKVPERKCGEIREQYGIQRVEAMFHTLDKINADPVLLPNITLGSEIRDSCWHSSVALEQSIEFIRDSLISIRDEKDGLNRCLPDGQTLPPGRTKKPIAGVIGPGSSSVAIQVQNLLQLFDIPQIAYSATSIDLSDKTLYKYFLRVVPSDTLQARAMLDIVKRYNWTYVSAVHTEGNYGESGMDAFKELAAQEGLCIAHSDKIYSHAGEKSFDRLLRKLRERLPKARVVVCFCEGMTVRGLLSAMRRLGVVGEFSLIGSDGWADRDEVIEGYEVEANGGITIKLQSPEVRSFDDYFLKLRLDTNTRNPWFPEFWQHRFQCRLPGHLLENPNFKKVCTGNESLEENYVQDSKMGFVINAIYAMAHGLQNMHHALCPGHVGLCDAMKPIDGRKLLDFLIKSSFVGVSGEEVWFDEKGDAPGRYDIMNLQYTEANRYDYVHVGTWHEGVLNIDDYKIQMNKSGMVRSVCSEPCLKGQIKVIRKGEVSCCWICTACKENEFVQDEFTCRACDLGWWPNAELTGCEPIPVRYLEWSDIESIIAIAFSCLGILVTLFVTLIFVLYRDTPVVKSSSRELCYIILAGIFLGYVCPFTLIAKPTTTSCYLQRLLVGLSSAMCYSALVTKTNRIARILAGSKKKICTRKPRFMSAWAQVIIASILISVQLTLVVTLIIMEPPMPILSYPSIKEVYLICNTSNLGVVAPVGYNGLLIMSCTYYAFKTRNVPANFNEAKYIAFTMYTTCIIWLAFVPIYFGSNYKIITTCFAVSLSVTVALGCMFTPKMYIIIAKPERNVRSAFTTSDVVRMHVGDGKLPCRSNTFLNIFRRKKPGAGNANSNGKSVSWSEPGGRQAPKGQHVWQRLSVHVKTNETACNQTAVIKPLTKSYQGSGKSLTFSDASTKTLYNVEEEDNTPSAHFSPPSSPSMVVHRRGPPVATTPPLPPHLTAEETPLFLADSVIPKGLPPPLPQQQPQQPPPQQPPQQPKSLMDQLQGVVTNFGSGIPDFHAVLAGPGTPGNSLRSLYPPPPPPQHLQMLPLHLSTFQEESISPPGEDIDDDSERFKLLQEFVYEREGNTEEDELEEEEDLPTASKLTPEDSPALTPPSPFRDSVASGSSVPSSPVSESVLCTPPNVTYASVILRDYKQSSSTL

mGlu1 A59H/N264H mutant = molecular target: T3, mGlu1 A59H/N264H mutant (Rattus norvegicus, UniProt P23385, A59H/N264H); assay: Fura-2 Ca2+ imaging in HEK293 cells expressing mGlu1 A59H/N264H
T3 construct: expressed in transfected cells; host or cells: HEK293
T3 sequence (P23385 19-1199 A59H/N264H): as the sequence (P23385 19-1199 P58H/N264H) above, with H40P, A41H counted along it

mGlu1 K61H/N264H mutant = molecular target: T4, mGlu1 K61H/N264H mutant (Rattus norvegicus, UniProt P23385, K61H/N264H); assay: Fura-2 Ca2+ imaging in HEK293 cells expressing mGlu1 K61H/N264H
T4 construct: expressed in transfected cells; host or cells: HEK293
T4 sequence (P23385 19-1199 K61H/N264H): as the sequence (P23385 19-1199 P58H/N264H) above, with H40P, K43H counted along it

mGlu1(N264H) mutant [1] = molecular target: T5, mGlu1(N264H) mutant (Rattus norvegicus, UniProt P23385, N264H); assay: Fura-2 Ca2+ imaging in HEK293 cells expressing mGlu1(N264H)
T5 construct: expressed in transfected cells; host or cells: HEK293
T5 sequence (P23385 19-1199 N264H): as the sequence (P23385 19-1199 P58H/N264H) above, with H40P counted along it

mGlu1 P57H/N264H mutant = molecular target: T6, mGlu1 P57H/N264H mutant (Rattus norvegicus, UniProt P23385, N264H/P57H); assay: Fura-2 Ca2+ imaging in HEK293 cells expressing mGlu1 P57H/N264H; conditions: single-cell values #1-#20; P57H/N264H
T6 construct: expressed in transfected cells; host or cells: HEK293
T6 sequence (P23385 19-1199 P57H/N264H): as the sequence (P23385 19-1199 P58H/N264H) above, with P39H, H40P counted along it

mGlu1 E60H/N264H mutant = molecular target: T7, mGlu1 E60H/N264H mutant (Rattus norvegicus, UniProt P23385, E60H/N264H); assay: Fura-2 Ca2+ imaging in HEK293 cells expressing mGlu1 E60H/N264H; conditions: single-cell values #1-#20; E60H/N264H
T7 construct: expressed in transfected cells; host or cells: HEK293
T7 sequence (P23385 19-1199 E60H/N264H): as the sequence (P23385 19-1199 P58H/N264H) above, with H40P, E42H counted along it

mGlu1(N264H) mutant [2] = molecular target: T5, mGlu1(N264H) mutant; assay: Inositol-1-phosphate (IP1) accumulation assay, HEK293 cells expressing mGlu1(N264H)
[3] = system: HEK293 cells, control vector; assay: Inositol-1-phosphate (IP1) accumulation assay, HEK293 cells transfected with control vector; conditions: 30 µM Pd(bpy); Vec
PC12 cells = assay: NGF-induced neurite outgrowth in differentiated PC12 cells; design: neurite outgrowth, individual values #1-#20 (Fig.4b): unit not given here; conditions: for neurite outgrowth, individual values #1-#20 (Fig.4b): differentiated PC12 cells
Procedure: After incubation for 3 days, PC12 cells bearing neurites were randomly selected, and the length of the longest neurite in each cell was measured using ImageJ package Fiji.

[4] = HEK293 cells, Fura-2, read-out: EC50, Ca2+ response (Δratio)

T1 sequence (P23385 19-1199): as the sequence (P23385 19-1199 P58H/N264H) above, with H40P, H246N counted along it

Question: For `O=[N+]([O-])[O-].O=[N+]([O-])[O-].[Pd+2].c1ccc(-c2ccccn2)nc1` [Pd(bpy), Pd(bpy)(NO3)2], which “Ca2+ response of individual cells (source data Suppl Fig1), WT” value (WT mGlu1) is on record?
Answer: The value was -0.002508 and 0.03248 and -0.005946 and 0.001185 and -0.01881 and -0.01405 and 0.05177 and 0.006038 and 0.01295 and 0.02212 and 0.002477 and -0.0007231 and 0.1314 and 0.1045 and 0.02565 and -0.005715 and 0.004592 and -0.01058 and -0.003931 and 0.0524.

Question: And the pEC50 (mGlu1 P58H/N264H mutant; [4])?
Answer: Its pEC50 is 5.92.

Question: And the “Ca2+ response of individual cells (source data Suppl Fig1), P58H/N264H” value (mGlu1 P58H/N264H mutant; single-cell values #1-#20, P58H/N264H)?
Answer: Its value is 1.407 and 1.235 and 0.2781 and 0.4382 and 0.4216 and 0.8249 and 0.694 and 0.5635 and 0.8179 and 0.3484 and 1.211 and 0.7928 and 0.02745 and 0.7691 and 1.112 and 0.5883 and 0.4797 and 0.3836 and 0.0272 and 0.6649.

Question: And the pEC50 (mGlu1 A59H/N264H mutant; [4])?
Answer: The pEC50 was 5.42.

Question: What about the “Ca2+ response of individual cells (source data Suppl Fig1), A59H/N264H” value (mGlu1 A59H/N264H mutant; single-cell values #1-#20, A59H/N264H) of the same molecule?
Answer: Its value is 0.6362 and 0.8074 and 0.5582 and 0.806 and 0.7717 and -0.01028 and 0.5677 and 0.7063 and 0.5602 and 0.7126 and 0.6578 and 1.118 and 1.1499 and 0.77 and 0.5325 and 0.4993 and 0.7176 and 0.6258 and 0.8578 and 0.6525.

Question: And the pEC50 (mGlu1 K61H/N264H mutant; [4])?
Answer: Its pEC50 is 5.64.

Question: And the “Ca2+ response of individual cells (source data Suppl Fig1), K61H/N264H” value (mGlu1 K61H/N264H mutant; single-cell values, K61H/N264H)?
Answer: Its value is 0.2703 and 0.5297 and 0.971 and -0.1576 and 0.5357 and 0.5344 and 1.086 and 1.005 and 0.6767 and 0.2693 and 0.4514 and -0.009392 and 0.06739 and -0.01372.

Question: And the “Positive allosteric effect: dose-dependency of glutamate-induced responses” value (mGlu1(N264H) mutant [1]; 3 µM Pd(bpy) in the presence of 10 µM LY367385)?
Answer: The value was “unaffected”.

Question: And the “Time to basal level after wash-out by culture medium” value (mGlu1(N264H) mutant [1]; 10 µM agonist, n = 15)?
Answer: Its value is 49.0 ± 6.4 s.

Question: What about the pEC50 (mGlu1(N264H) mutant [1]; [4]) of the same molecule?
Answer: The pEC50 was 5.80.

Question: What about the “Pd(bpy) off” value (mGlu1(N264H) mutant [1]; ave of 15 cells) of the same molecule?
Answer: Its value is 49 s.

Question: And the “Pd(bpy) on” value (mGlu1(N264H) mutant [1]; ave of 15 cells)?
Answer: The value was 58 s.

Question: What about the “Effect on 100 μM glutamate-induced response” value (mGlu1(N264H) mutant [1]; in the presence of LY367385, P = 0.3803) of the same molecule?
Answer: The value was “not enhanced”.

Question: What about the “Ca2+ response to Pd complex, individual cells #1-#20 (Fig.4e)” value (mGlu1(N264H) mutant [1]; single-cell values) of the same molecule?
Answer: The value was 0.1987 and 0.007031 and 0.6462 and 0.6597 and 0.6897 and 0.134 and 0.5276 and 0.6019 and 0.1524 and 0.7025 and 0.5861 and 1.131 and 0.7531 and 0.5352 and 0.5053 and 0.4553 and 0.9996 and 0.7233 and 0.7477 and 0.221.

Question: And the “Ca2+ response of individual cells (source data Suppl Fig1), P57H/N264H” value (mGlu1 P57H/N264H mutant)?
Answer: The value was 1.496 and 0.4197 and 0.3632 and 0.5618 and 0.3459 and 0.2699 and 0.5435 and -0.005777 and 0.04309 and 0.04215 and 0.5777 and 1 and 0.77 and 0.6187 and 0.5778 and -0.002723 and 0.1859 and 0.08165 and 0.3295 and 0.5272.

Question: And the “Ca2+ response of individual cells (source data Suppl Fig1), E60H/N264H” value (mGlu1 E60H/N264H mutant)?
Answer: The value was -0.015 and 0.1464 and 0.05592 and 0.009469 and 0.1218 and 0.005362 and 1.129 and 0.9384 and 0.8641 and 0.6693 and 0.02784 and 0.0255 and 0.002069 and -0.0022 and -0.0079 and 0.08848 and 0.002385 and -0.01194 and -0.01146 and 0.1752.

Question: And the “IP1 accumulation, single experiments” value (mGlu1(N264H) mutant [2]; 30 µM Pd(bpy), N264H)?
Answer: The value was 1.924 and 2.4034 and 1.9034 and 1.783.

Question: What about the “IP3 production evaluated by IP1 accumulation” value (mGlu1(N264H) mutant [2]; Pd(bpy) 30 µM / 10 μM (method)) of the same molecule?
Answer: The value was “increased”.

Question: What about the “IP1 accumulation, single experiments” value [3] of the same molecule?
Answer: The value was 1.069 and 0.9695 and 0.8004.

Question: What about the Neurite outgrowth (PC12 cells; 100 μM, 3 days, NGF-differentiated) of the same molecule?
Answer: Its Neurite outgrowth is “not affected”.

Question: And the “neurite outgrowth, individual values #1-#20 (Fig.4b)” value (shortened to “neurite outgrowth … (Fig.4b)”) (PC12 cells; [Pd(bpy)] 1 µM)?
Answer: Its value is 135.681 and 134.669 and 132.267 and 127.77 and 127.752 and 123.426 and 118.782 and 113.497 and 109.51 and 107.296 and 102.296 and 95.2965 and 92.9706 and 197.35 and 182.054 and 180.267 and 162.995 and 150.48 and 140.539 and 136.598.

Question: What about the “neurite outgrowth … (Fig.4b)” value (PC12 cells; [Pd(bpy)] 3 µM) of the same molecule?
Answer: Its value is 125.971 and 116.953 and 113.154 and 109.598 and 107.841 and 88.6396 and 86.7696 and 85.5685 and 80.0833 and 79.598 and 79.4975 and 76.3259 and 73.1127 and 263.255 and 244.078 and 176.493 and 155.64 and 151.309 and 138.368 and 127.894.

Question: And the “neurite outgrowth … (Fig.4b)” value (PC12 cells; [Pd(bpy)] 10 µM)?
Answer: Its value is 140.024 and 139.953 and 126.728 and 122.326 and 118.61 and 116.811 and 111.912 and 108.941 and 106.468 and 103.983 and 102.368 and 92.3553 and 91.5269 and 184.551 and 173.426 and 168.711 and 166.853 and 164.196 and 142.426 and 140.681.

Question: And the “neurite outgrowth … (Fig.4b)” value (PC12 cells; [Pd(bpy)] 30 µM)?
Answer: Its value is 110.627 and 105.752 and 95.8406 and 93.1838 and 90.6274 and 88.9706 and 84.7696 and 80.5685 and 78.2548 and 76.598 and 71.4264 and 67.1127 and 62.669 and 292.527 and 200.326 and 143.51 and 135.196 and 131.456 and 117.853 and 113.811.
